{"source": "patent US11884686B2", "about": "“Chelate compounds” (priority 2016, dated 2024)", "key": {"[1]": {"experiment": "In vitro proton relaxivity in human serum", "assay_type": "physicochemical", "settings": "60 MHz, 40° C.", "procedure": "Both the longitudinal and transverse relaxation times were measured in human serum (BioreclamationIVT, Cat #HMSRM-M) to reflect the efficiency of the Mn(II) based chelates in an environment close to physiological. The relaxivity assessment was carried out at a concentration ranging from 5 to 0 mM Mn(II), at 40° C. using a Minispec Mq benchtop NMR relaxometer (Bruker Instruments, Rheinstetten, Germany) operating at 60 MHz (1.4 T) with an inversion recovery pulse sequence. The longitudinal and transverse relaxivities of the complexes (e.g., r1 and r2 respectively) were calculated by plotting the reciprocal of their relaxation time versus the manganese concentration as determined via ICP-MS (Spectro Arcos FHS12, S/N 10003910 or S/N 12006120) for each Mn(II) based chelates. The dependence of T1 by B0 (i.e., magnetic field) applied was assessed via the acquisition of ^1H Nuclear Magnetic Relaxation Dispersion (NMRD) profiles. A dedicated Stelar SMARTracer Fast Field Cycling relaxometer (0.01-10 MHz) and a Bruker WP80 NMR electromagnet adapted to variable field measurements (20-80 MHz) and controlled by a SMARTracer PC-NMR console was used to record the ^1H NMRD profiles over an extended range of Larmor Frequencies (from 0.01 to 80 MHz). The temperature was monitored by a VTC91 temperature control unit and maintained by a gas flow. The temperature was determined by previous calibration with a Pt resistance temperature probe. High field relaxivities were measured on a Bruker AVANCE NMR spectrometer at 400 MHz. A total of 25 data points per NMRD profile were recorded at each temperature, pH 6.9 and with a manganese concentration in the samples of 6.99, 6.78 and 4.45 mM for the prior art Mn Chelate, Mn Chelate 4 and Mn Chelate 3, respectively. The concentration of Mn(II) in all samples was verified by Bulk Magnetic Susceptibility (BMS) measurements. Relaxivity was computed by subtracting the relaxation rate of the medium (distilled water) from the relaxation rate of the Mn(II) complex solution at each field strength and dividing the difference by the manganese concentration verified by BMS measurements.\nThe linear fit (R2>0.99 for all compounds examined) of 1/T1 and 1/T2 as a function of Mn concentration generated the r1 or r2 values reported in Table 4 for human serum."}, "[2]": {"experiment": "Water solubility of Mn(II) based chelates", "assay_type": "physicochemical", "settings": "thermodynamic from solid, 25° C.", "procedure": "The solubility of Mn(II) based chelates was confirmed by dissolving purified Mn(II) based chelates ( 99% purity) in a prescribed volume of solvent (Millipore water 18.2 MegaOhm from a Millipore BioCell Benchtop unit) to provide a solution of given volume. Solutions were visually inspected for homogeneity and filtered through a 0.45 um PTFE filter membrane if necessary. The assessment was carried out at 25° C. Final sample concentrations were confirmed by determination of final Mn(II) concentration via ICP-MS (Spectro Arcos FHS[…] 10003910 or S/N 12006120)."}, "[3]": {"experiment": "In vivo 54Mn biodistribution study in rats", "settings": "rat; for % ID retained activity, Brain / % ID retained activity, Bladder / % ID retained activity, Blood / % ID retained activity, Heart / % ID retained activity, Kidney / % ID retained activity, Liver / % ID retained activity, Lungs / % ID retained activity, Muscle / % ID retained activity, Olfactory Bulb / % ID retained activity, Skin / % ID retained activity, Spleen / % ID retained activity, Tibia/Fibula / % ID retained activity, Femur / % ID retained activity, Pituitary Gland: 7 days post single iv 0.62 mmol/kg, LoD 0.002% ID (Prior Art, Chelate 4), 0.005% ID (Chelate 3); for % ID retained activity, Brain: ~30 μCi 54Mn; for in vivo stability from biodistribution profile: 7 days post single iv administration", "procedure": "^54Mn labeled chelates for biodistribution studies were prepared using the following method. To a 3 mL glass vial fitted with a magnetic stir bar was added the respective manganese containing chelate (1 mg) and 1.0 M ammonium formate, pH=4 (0.5 mL) (pH=5 for prior art Mn Chelate). ^54MnCl2 in 1.0 M HCl (˜500 μCi) was then added and the resulting solution was heated at 40° C. for 16 h. The resulting solution was purified via preparative HPLC to remove unchelated Mn. The radioactive fraction was collected and evaporated to dryness in vacuo. The radioactive residue was taken up in water containing non-radioactive Mn chelate (0.310 M) such that ˜30 μCi of radioactivity was formulated in a dose of 0.620 mmol Mn/kg with an injection volume of 2 mL/kg.\nThe experimental protocol conformed to the Guide for the Care and Use of Laboratory Animals and was approved by the IACUC at General Electric Global Research (Niskayuna, NY). Female Sprague-Dawley rats (130-150 g; Charles River Laboratories; Massachusetts; USA) were housed in standard cages, provided with ad libitum access to standard commercial food and water, and were maintained on an alternating 12-hr light-dark cycle in rooms with controlled temperature and humidity. Prior to injection of ^54Mn labelled chelates, rats were anesthetized via inhaled 3% Isoflurane (Piramal, NDC 66794-013-25; EZ-Anesthesia EZ700 Isoflurane Vaporizer, S/N 107). The injection site was prepped with alcohol wipes and a temporary 27 Ga catheter (Surflo SROX2419V) was placed in a tail vein. 30 μCi (0.74 MBq) of ^54Mn labelled chelate formulated with respective non-radioactive Mn(II) based chelate was dosed at 0.620 mmol non-radioactive Mn chelate/kg at an injection volume of 2 m L/kg was injected at a rate of 1 mL/min. Following injection animals were individually housed in wire bottom cages lined with filter paper until first urine void was collected. The rats were then cohoused in standard long term caging. 7 days post injection, the animals were sacrificed by CO2 immersion and organs and tissues of interest were removed and assayed for radioactivity using a Wizard 2480 gamma counter (Perkin Elmer, Beaconsfield, UK).\nNaïve rats (Charles River Laboratories; Massachusetts; USA) received a single dose of 0.620 mmol/kg (approximately 30 μCi, 0.740 MBq) of test item via tail vein by injection. Additionally, one group of animals received osmolality matched saline (concentrated NaCl for injection: APP Pharmaceuticals part #NDC 63323-187-30 Lot #6008656 mixed with Sterile Water for Injection: Hospira part #NDC 0409-7990-09 Lot #49-396-DKas) as negative control (Table 1). After sacrifice, the organs and tissues were removed and assayed for residual radioactivity (i.e. ^54Mn organ retention) 7 days post single administration."}}, "data": [{"compound": "CN(C[C@H](O)[C@@H](O)[C@H](O)[C@H](O)CO)C(=O)CCCN1CCN2Cc3cccc(n3)CN(CC1)C(CCC(=O)N(C)C[C@H](O)[C@@H](O)[C@H](O)[C@H](O)CO)C(=O)[O][Mn][O]C(=O)C2CCC(=O)N(C)C[C@H](O)[C@@H](O)[C@H](O)[C@H](O)CO", "note": "(some centres unmarked) [Mn Chelate 3]", "values": [{"measurement": "r1 (longitudinal relaxivity)", "setting": "[1]", "result": 8.0, "unit": "mM⁻¹ s⁻¹"}, {"measurement": "solubility", "setting": "[2]", "result": "> 500", "unit": "mM"}, {"measurement": "% ID retained activity, Brain", "setting": "[3]", "result": "within endogenous level variability and LOD"}, {"measurement": "% ID retained activity, Bladder", "setting": "[3]", "result": "≤LOD"}, {"measurement": "% ID retained activity, Blood", "setting": "[3]", "result": "≤LOD"}, {"measurement": "% ID retained activity, Heart", "setting": "[3]", "result": "≤LOD"}, {"measurement": "% ID retained activity, Kidney", "setting": "[3]", "result": "0.026 ± 0.005", "unit": "% ID"}, {"measurement": "% ID retained activity, Liver", "setting": "[3]", "result": "0.091 ± 0.017", "unit": "% ID"}, {"measurement": "% ID retained activity, Lungs", "setting": "[3]", "result": "≤LOD"}, {"measurement": "% ID retained activity, Muscle", "setting": "[3]", "result": "≤LOD"}, {"measurement": "% ID retained activity, Olfactory Bulb", "setting": "[3]", "result": "≤LOD"}, {"measurement": "% ID retained activity, Skin", "setting": "[3]", "result": "≤LOD"}, {"measurement": "% ID retained activity, Spleen", "setting": "[3]", "result": "≤LOD"}, {"measurement": "% ID retained activity, Tibia/Fibula", "setting": "[3]", "result": "≤LOD"}, {"measurement": "in vivo stability from biodistribution profile", "setting": "[3]", "result": "improved stability compared to the prior art Mn Chelate"}]}, {"compound": "CN1CCN2Cc3cccc(n3)CN(CC1)C(CCC(=O)N(C)C[C@H](O)[C@@H](O)[C@H](O)[C@H](O)CO)C(=O)[O][Mn][O]C(=O)C2CCC(=O)N(C)C[C@H](O)[C@@H](O)[C@H](O)[C@H](O)CO", "note": "(some centres unmarked) [Mn Chelate 4]", "values": [{"measurement": "r1 (longitudinal relaxivity)", "setting": "[1]", "result": 5.3, "unit": "mM⁻¹ s⁻¹"}, {"measurement": "solubility", "setting": "[2]", "result": "> 500", "unit": "mM"}, {"measurement": "% ID retained activity, Bladder", "setting": "[3]", "result": "≤LOD"}, {"measurement": "% ID retained activity, Blood", "setting": "[3]", "result": "≤LOD"}, {"measurement": "% ID retained activity, Femur", "setting": "[3]", "result": "≤LOD"}, {"measurement": "% ID retained activity, Heart", "setting": "[3]", "result": "≤LOD"}, {"measurement": "% ID retained activity, Kidney", "setting": "[3]", "result": "0.038 ± 0.017", "unit": "% ID"}, {"measurement": "% ID retained activity, Liver", "setting": "[3]", "result": "0.075 ± 0.011", "unit": "% ID"}, {"measurement": "% ID retained activity, Lungs", "setting": "[3]", "result": "≤LOD"}, {"measurement": "% ID retained activity, Muscle", "setting": "[3]", "result": "≤LOD"}, {"measurement": "% ID retained activity, Olfactory Bulb", "setting": "[3]", "result": "≤LOD"}, {"measurement": "% ID retained activity, Pituitary Gland", "setting": "[3]", "result": "≤LOD"}, {"measurement": "% ID retained activity, Skin", "setting": "[3]", "result": "≤LOD"}, {"measurement": "% ID retained activity, Spleen", "setting": "[3]", "result": "≤LOD"}, {"measurement": "% ID retained activity, Tibia/Fibula", "setting": "[3]", "result": "≤LOD"}, {"measurement": "in vivo stability from biodistribution profile", "setting": "[3]", "result": "improved stability compared to the prior art Mn Chelate"}]}, {"compound": "CN1CCN2CC(=O)[O][Mn][O]C(=O)CN(CC1)Cc1cccc(n1)C2", "note": "[Prior Art Mn Chelate, reference compound]", "values": [{"measurement": "r1 (longitudinal relaxivity)", "setting": "[1]", "result": 3.0, "unit": "mM⁻¹ s⁻¹"}, {"measurement": "solubility", "setting": "[2]", "result": "> 500", "unit": "mM"}, {"measurement": "% ID retained activity, Brain", "setting": "[3]", "result": "0.007 ± 0.002", "unit": "% ID"}, {"measurement": "% ID retained activity, Bladder", "setting": "[3]", "result": "≤LOD"}, {"measurement": "% ID retained activity, Blood", "setting": "[3]", "result": "≤LOD"}, {"measurement": "% ID retained activity, Femur", "setting": "[3]", "result": "0.003 ± 0.001", "unit": "% ID"}, {"measurement": "% ID retained activity, Heart", "setting": "[3]", "result": "≤LOD"}, {"measurement": "% ID retained activity, Kidney", "setting": "[3]", "result": "0.012 ± 0.002", "unit": "% ID"}, {"measurement": "% ID retained activity, Liver", "setting": "[3]", "result": "0.072 ± 0.017", "unit": "% ID"}, {"measurement": "% ID retained activity, Lungs", "setting": "[3]", "result": "≤LOD"}, {"measurement": "% ID retained activity, Muscle", "setting": "[3]", "result": "≤LOD"}, {"measurement": "% ID retained activity, Olfactory Bulb", "setting": "[3]", "result": "≤LOD"}, {"measurement": "% ID retained activity, Pituitary Gland", "setting": "[3]", "result": "≤LOD"}, {"measurement": "% ID retained activity, Skin", "setting": "[3]", "result": "≤LOD"}, {"measurement": "% ID retained activity, Spleen", "setting": "[3]", "result": "≤LOD"}, {"measurement": "% ID retained activity, Tibia/Fibula", "setting": "[3]", "result": "0.002 ± 0.000", "unit": "% ID"}]}]}
